Reference: publication PMC7036544, “Persistent candida arthritis successfully treated with micafungin instillation and surgery. A case report” (Medical Mycology Case Reports, 2019)
Starred links: 1 amine or outer side, 2 acyl side, 3 side chain; linkers in the order of their positions; H or OH if unused. Positions of bridges follow the written chain, without caps; N, C: chain ends. Non-standard residues stand in square brackets, D forms with d. Residues, ends and D or L forms follow the SMILES beside them. *: point of attachment. hTyr(3S-OH,4S-OH,3'-OSO3H) = N[C@H](C(=O)O)[C@H](O)[C@@H](O)c1ccc(O)c(OS(=O)(=O)O)c1; Orn(4R-OH,5R-OH) = O=C([C@H](C[C@@H](O)[C@@H](O)N[*:3])N[*:1])[*:2]; Pro(3S-OH,4S-Me) = C[C@H]1CN[C@H](C(=O)O)[C@H]1O; X1 = CCCCCOc1ccc(-c2cc(-c3ccc(C(=O)*)cc3)no2)cc1; Gln(3R-OH) = NC(=O)C[C@@H](O)[C@H](N)C(=O)O; Hyp = O=C(O)[C@@H]1C[C@@H](O)CN1

Experiments:
[1] = Micafungin concentration in serum of the patient; format: in vivo, human; conditions: one patient, single measurement
Protocol: C. krusei has been identified with the use of CHROMagar™ with subsequent identification by Maldi-TOF, with database MALDI BDAL Database version 8.0. Micafungin concentrations were measured (laboratory of pharmacy, University Hospital Nijmegen, the Netherlands) in serum and joint fluid. The concentrations in […] and concentration in synovial fluid 24 hours after installation of 3mg of micafungin in the knee was 11mg/L at day 19, as well presented in Table 1. Reference concentrations of micafungin in serum derived from 2 studies in critically ill patients trough level 1.4–3.1 mg/L were described. […] Administration of 100mg once daily results in trough serum concentration levels of 2 mg-L [14]. In hematology patients reference concentrations after intravenous micafungin are available as well [15].

[2] = Micafungin concentration in joint (synovial) fluid of the patient after intra-articular instillation; format: in vivo, human; conditions: one patient; day 19; joint fluid aspirated 24 hours after intra-articular instillation of 3mg micafungin (trough); IA 3mg OD day 17 – day 24; single measurement
Protocol: C. krusei has been identified with the use of CHROMagar™ with subsequent identification by Maldi-TOF, with database MALDI BDAL Database version 8.0. Micafungin concentrations were measured (laboratory of pharmacy, University Hospital Nijmegen, the Netherlands) in serum and joint fluid. The concentrations in serum 12 hours after the administration of 100mg intravenously at day 13 and 16 of therapy were 4.5 and 1.5mg/L respectively and concentration in synovial fluid 24 hours after installation of 3mg of micafungin in the knee was 11mg/L at day 19, as well presented in Table 1. Reference concentrations of micafungin in serum derived from 2 studies in critically ill patients trough level 1.4–3.1 mg/L were described. […] Administration of 100mg once daily results in trough serum concentration levels of 2 mg-L [14]. In hematology patients reference concentrations after intravenous micafungin are available as well [15].

C. krusei = assay: MIC of micafungin for the patient's C. krusei; format: cell-based, Candida krusei; conditions: isolate of the patient
[3] = Local toxicity in the knee joint after intra-articular micafungin; format: in vivo, human; conditions: one patient; intra-articular instillation, local concentration 11mg/l
C. krusei knee arthritis = assay: Clinical outcome of C. krusei knee arthritis; format: in vivo, human; conditions: one patient; instillation of micafungin in the knee plus intravenous micafungin and arthroscopic debridement
From the text: A week later, the patient was readmitted for a second course of chemotherapy and amphotericin-B oral solution was given to prevent a new episode of translocation of C. krusei. During this hospital stay they hit their left knee on the side of the bed. Their knee continued to be painful and as a knee effusion was noted three days after injury, the orthopedic surgeon was consulted. On physical examination a large effusion of their left knee was found. The joint was not visibly red, but was warm on palpation. Their temperature was 38.4° Celsius. A plain knee radiograph of the knee was normal. An aspiration of the affected knee was performed and the joint fluid was sent for culture, this day was considered as day 0. Day 1 the joint aspiration grew C. krusei for which intravenous micafungin was restarted at a dose of 100mg twice daily. As the patient was deeply thrombopenic as well as neutropenic at that time, no arthroscopic drainage and lavage was performed but instead the knee was repeatedly drained by needle aspiration. On the day of the first needle aspiration of the knee and for the next 10 days, blood cultures were positive for C. krusei as well. Furthermore, repeated needle aspirations of the knee continued to grow C. krusei. An echocardiography at day 6 was normal. […]

[4] = critically ill patients, 2 studies; cited from earlier work
[5] = healthy subjects; cited from earlier work
[6] = reconstitution in NaCl 0.9%; cited from earlier work
From the text: Synovial fluid is a transudate of plasma, so dissolution of micafungin in synovial fluid will be likely. Moreover, diffusion from plasma to the synovial fluid will occur. Unfortunately, data about the extent of diffusion from plasma to the synovial fluid are not available. The possible side effects as well as the possible toxic effects on cartilage of micafungin when administered directly into a joint are unknown. However, we decided to administer micafungin through direct intra-articular instillation as, despite prolonged high-dose intravenous micafungin therapy, blood as well as synovial cul ...

CCCCCOc1ccc(-c2cc(-c3ccc(C(=O)N[C@H]4C[C@@H](O)[C@@H](O)NC(=O)[C@@H]5[C@@H](O)[C@@H](C)CN5C(=O)[C@H]([C@H](O)CC(N)=O)NC(=O)[C@H]([C@H](O)[C@@H](O)c5ccc(O)c(OS(=O)(=O)O)c5)NC(=O)[C@@H]5C[C@@H](O)CN5C(=O)[C@H]([C@@H](C)O)NC4=O)cc3)no2)cc1 [micafungin] (X1-[Orn(4R-OH,5R-OH)]T[Hyp][hTyr(3S-OH,4S-OH,3'-OSO3H)][Gln(3R-OH)][Pro(3S-OH,4S-Me)]; lactam 1-C)
Micafungin concentration in serum ([1]; 12 hours after administration of 100mg intravenously, day 16 of therapy): 1.5 mg/L | Micafungin concentration (trough serum) ([1]; day 14, IV 100mg BID day 1 – day 15): 4.5 mg/L | Micafungin concentration (trough serum) ([1]; day 17 (day of surgery), IV 200mg OD day 16 – day 32): 1.5 mg/L | Micafungin concentration in synovial fluid (joint) [2]: 11 mg/L | MIC of the C. krusei (C. krusei): 0.125 µg/mL | Local toxicity of the joint [3]: no local toxicity was observed | Clinical outcome (C. krusei knee arthritis): completely recovered | Reference concentration of micafungin in serum, trough level [4]: 1.4 to 3.1 mg/L | Half-life [5]: 15 h | Volume of distribution [5]: 0,2 L/kg | pH after reconstitution [6]: 5–7
